Here are results for one compound from US7071218B2, “N-substituted heterocycles for the treatment of hypercholesteremia, dyslipidemia and other metabolic disorders; cancer, and other diseases” (Incyte San Diego Incorporated, priority 2001, dated 2006).

The subject of experiment [1] is LXR. Kind of experiment: In vitro transactivation assay in CV-1 cells, antagonism of T0901317-induced Gal-LXR activation. The settings on record: at 10 μM, with 1 μM agonist T0901317, dose-dependent. The class given is cell-based. The text has this:
In vitro screens such as the transactivation assay can be used to measure the ability of a compound to inhibit a nuclear receptor regulating lipid or carbohydrate uptake, synthesis or metabolism. In the assay described herein compounds can be identified that can inhibit activation of the following nuclear receptors: LXR, PPARα, PPARγ and FXR. This activity can be useful to treat lipid disorders such as hypercholesteremia and obesity.
Cell line: Kidney Green Monkey CV-1 cells.
Growing culturing medium: Dulbecco's modified Eagle's medium (DMEM) supplememnted with 10% fetal calf serum (FCS).
Procedure: CV-1 cells were plated in 48 well-plate culture plates, at a density of 10,000 cells/well, 24 h prior to transfection. One to three hours before transfection, cells were fed with fresh medium. A modified calcium phosphate precipitation procedure was used for transient transfection (Pfahl, M. et al., 1990, Methods in Enzymology 189: 256).
Typically, 40 ng reporter plasmid and 20 ng of each receptor expression vector were mixed, together with 10 ng of β-galactosidase control plasmid (pCH110, Pharmacia, Piscataway, N.J.) and Bluescript plasmid to obtain a total of 400 ng DNA per well. To this mixture 1 μl of 2.5M CaCl2 and 10 μl of BBS buffer, pH 6.95, were added afterward. […]

Experiment [2] relates to MDA-MB-468 breast cancer cells. Kind of experiment: MTT anti-cancer assay, MDA-MB-468 breast cancer cells. The class given is cell-based, human. The following applies: at 10 μM, 6 days. An excerpt:
The anti-cancer activity of the compounds of the invention herein have been tested in in vitro assays using a microculture assay with 3-(4,5-dimethylthiazol-2-yl)-2,5-diphenyltetrazolium bromide (“MTT”) a test well known to those skilled in the art. This assay has an advantage over in vivo assay in that results are obtained within a week as opposed to several months. The assay can be carried out in 96-well microtiter plates. The MTT assay is based on the production of a dark blue formazan product by dehydrogenase in the mitochondria of live tumor cells after exposure to drug for 6 days [M. C. […] Thus, only live cells are stained and can be measured at 595 nm. […]
Treatment: Before commencing drug treatment, cells were replenished with media containing 0.5% FCS. […] As an end point, the amount of surviving cells (Live cells) was measured using a standard […] assay (MTT based), and calculated as percentage of cells treated with vehicle (DMSO) alone (% control).
MTT assay: The assay is based on the cleavage of the yellow tetrazolium salt MTT to purple formazan crystals by dehydrogenase activity in active mitochondria. […] The formazan crystals formed are solubilized and the resulting colored solution is quantified using a scanning multiwell spectrophotometer. […]
For orientation: Tetrazolium dyes change colour on reduction, which living cells bring about.

Regarding `CN(C)c1cc2c(cc1-c1ccc3cc(/C=C4\SC(=S)N(CC(=O)O)C4=O)ccc3c1)C(C)(C)CCC2(C)C` [Compound 7, {5-[6-(3-Dimethylamino-5,5,8,8-tetramethyl-5,6,7,8-tetrahydro-naphthalen-2-yl)-naphthalen-2-ylmethylene]-4-oxo-2-thioxo-thiazolidin-3-yl}-acetic acid], the “inhibition of T0901317-induced LXR activation” value in experiment [1] is reported as 80–90%. In experiment [2], this compound gave a cells killed of about 80%.
